Source: patent US12352767B2, “Method of treating cognitive decline associated with neurological diseases based on a decrease in FLT4 expression or activity” (University of Virginia Patent Foundation, priority 2018, dated 2025)

Test system: Ly6GnegCD45+CD11b+ brain myeloid cells
Experiment: Single cell RNA-seq of brain myeloid cells (microglia) of WT and 5xFAD mice (Table 6, Table 7)
Assay type: in vivo
Set-up: key to Rel. Expr. 5xFAD Vis. + photo: HS-Q7 / Rel. Expr. 5xFAD Vis. + photo: Axl / Rel. Expr. 5xFAD Vis.: Ctdnep1 / Rel. Expr. 5xFAD Vis. + photo: Ctdnep1 / Rel. Expr. 5xFAD Vis.: Fabp5 / Rel. Expr. 5xFAD Vis. + photo: Fabp5 / Rel. Expr. 5xFAD Vis.: Nampt / Rel. Expr. 5xFAD Vis. + photo: Nampt / Rel. Expr. 5xFAD Vis. + photo: Tfdp1 / Rel. Expr. 5xFAD Vis. + photo: Hspb11 / Rel. Expr. 5xFAD Vis.: Tyrobp / Rel. Expr. 5xFAD Vis. + photo: Tyrobp / Rel. Expr. 5xFAD Vis. + photo: Tpt1 / Rel. Expr. 5xFAD Vis.: Fth1 / Rel. Expr. 5xFAD Vis. + photo: Fth1 / Rel. Expr. 5xFAD Vis. + photo: Eef1a1 / Rel. Expr. 5xFAD Vis.: Lgals3bp / Rel. Expr. 5xFAD Vis. + photo: Lgals3bp / Rel. Expr. 5xFAD Vis.: Ifitm3 / Rel. Expr. 5xFAD Vis. + photo: Ifitm3 / Rel. Expr. 5xFAD Vis.: Atp5h / Rel. Expr. 5xFAD Vis. + photo: Atp5h / Rel. Expr. 5xFAD Vis.: Fau / Rel. Expr. 5xFAD Vis. + photo: Fau / Rel. Expr. 5xFAD Vis.: Ftl1 / Rel. Expr. 5xFAD Vis. + photo: Ftl1 / Rel. Expr. 5xFAD Vis.: H2-K1 / Rel. Expr. 5xFAD Vis. + photo: H2-K1 / Rel. Expr. 5xFAD Vis. + photo: Tmsb4x / Rel. Expr. 5xFAD Vis. + photo: Uba52 / Rel. Expr. WT Vis.: Hexb / Rel. Expr. 5xFAD Vis.: Hexb / Rel. Expr. WT Vis.: Lgmn / Rel. Expr. 5xFAD Vis.: Lgmn / Rel. Expr. 5xFAD Vis. + photo: Rtp4 / Rel. Expr. 5xFAD Vis.: Lpl / Rel. Expr. 5xFAD Vis. + photo: Lpl: A “+” refers to relative upregulation of gene expression for the noted conditions; A “-” refers to relative downregulation of gene expression for the noted conditions
Procedure: Effects of meningeal ablation on gene expression were studied in 5×FAD mice. Single cell RNA-seq of brain myeloid cells from 4 months old wild type (WT) and 5×FAD mice were injected with Visudyne alone (Vis., functional meningeal lymphatics) or injected with Visudyne and subjected to transcranial photoconversion (Vis.+photo., ablated meningeal lymphatics). Meningeal lymphatic ablation step was performed twice within a span of 3 weeks and brain myeloid cells were isolated 3 weeks after the last step. Data were obtained from sorted live Ly6G^negCD45^+CD11b^+ brain myeloid cells pooled from 3 mice per group (FIGS. 14A-B). Unsupervised clustering of brain myeloid single cells using t-distributed Stochastic Neighbor Embedding (t-SNE) plotted by group (FIG. 14A) or by distinct cell cluster (FIG. 14B). Frequency of cells from each cluster within the total 354, 487 and 308 cells from WT Vis., 5×FAD Vis. and 5×FAD Vis.+photo. groups, respectively (FIG. 14C). Genes involved in the acquisition of the disease-associated microglia phenotype, depicting the homeostatic, TREM2-independent and TREM2-dependent signatures within each cell were depicted in a heatmap (FIG. 14D). Cells are grouped by cluster and genes are grouped by signature (FIG. 14D). Upset plots were generated for all cells (FIG. 14E) or cluster 1 cells (FIG. 14F) showing the overlap in differentially expressed genes for comparisons between 5×FAD Vis. or 5×FAD Vis.+photo. and WT Vis. […] Expression values are averaged across cells within each group. Normalized enrichment score for GSEA pathways were obtained by Fisher's exact test with Benjamini-Hochberg corrections for the 24 differentially expressed genes in cluster 1 is shown in FIG. 14H. Enrichment analysis was performed in R using the clusterProfiler package. Depicted in FIG. 14I is a heatmap showing the mean-centered average log normalized expression of each gene contributing to the core-enrichment of the “Lysosome” GSEA pathway. Expression values are averaged across cells within each group. All scales show mean-centered, log-normalized expression values.

[1] = 5xFAD mice, Visudyne + photoconversion, cluster 1 brain myeloid cells
[2] = 5xFAD mice, Visudyne alone, cluster 1 brain myeloid cells
[3] = WT mice, Visudyne alone, cluster 1 brain myeloid cells

verteporfin [Visudyne] was tested, and the “Rel. Expr. 5xFAD Vis. + photo: Atp5h” value [1] was “+”, the “Rel. Expr. 5xFAD Vis. + photo: Axl” value [1] was “+” and the “Rel. Expr. 5xFAD Vis. + photo: Ctdnep1” value [1] was “+”. The “Rel. Expr. 5xFAD Vis. + photo: Eef1a1” value [1] was “+”, the “Rel. Expr. 5xFAD Vis. + photo: Fabp5” value [1] was “+” and the “Rel. Expr. 5xFAD Vis. + photo: Fau” value [1] was “+”. For the same substance, the “Rel. Expr. 5xFAD Vis. + photo: Fth1” value [1] was “+”, the “Rel. Expr. 5xFAD Vis. + photo: Ftl1” value [1] was “+” and the “Rel. Expr. 5xFAD Vis. + photo: H2-K1” value [1] was “+”. For the same substance, the “Rel. Expr. 5xFAD Vis. + photo: HS-Q7” value [1] was “+”, the “Rel. Expr. 5xFAD Vis. + photo: Hspb11” value [1] was “+” and the “Rel. Expr. 5xFAD Vis. + photo: Ifitm3” value [1] was “+”. For the same substance, the “Rel. Expr. 5xFAD Vis. + photo: Lgals3bp” value [1] was “+”, the “Rel. Expr. 5xFAD Vis. + photo: Lpl” value [1] was “+” and the “Rel. Expr. 5xFAD Vis. + photo: Nampt” value [1] was “+”. The “Rel. Expr. 5xFAD Vis. + photo: Rtp4” value [1] was “+”, the “Rel. Expr. 5xFAD Vis. + photo: Tfdp1” value [1] was “+” and the “Rel. Expr. 5xFAD Vis. + photo: Tmsb4x” value [1] was “+”. For the same substance, the “Rel. Expr. 5xFAD Vis. + photo: Tpt1” value [1] was “+”, the “Rel. Expr. 5xFAD Vis. + photo: Tyrobp” value [1] was “+” and the “Rel. Expr. 5xFAD Vis. + photo: Uba52” value [1] was “+”. The “Rel. Expr. 5xFAD Vis.: Atp5h” value [2] was “+”, the “Rel. Expr. 5xFAD Vis.: Ctdnep1” value [2] was “+” and the “Rel. Expr. 5xFAD Vis.: Fabp5” value [2] was “+”. The “Rel. Expr. 5xFAD Vis.: Fau” value [2] was “+”, the “Rel. Expr. 5xFAD Vis.: Fth1” value [2] was “+” and the “Rel. Expr. 5xFAD Vis.: Ftl1” value [2] was “+”. For the same substance, the “Rel. Expr. 5xFAD Vis.: H2-K1” value [2] was “+”, the “Rel. Expr. 5xFAD Vis.: Hexb” value [2] was “+” and the “Rel. Expr. 5xFAD Vis.: Ifitm3” value [2] was “+”. The “Rel. Expr. 5xFAD Vis.: Lgals3bp” value [2] was “+”, the “Rel. Expr. 5xFAD Vis.: Lgmn” value [2] was “+” and the “Rel. Expr. 5xFAD Vis.: Lpl” value [2] was “+”. For the same substance, the “Rel. Expr. 5xFAD Vis.: Nampt” value [2] was “+”, the “Rel. Expr. 5xFAD Vis.: Tyrobp” value [2] was “+” and the “expression of genes of the GSEA lysosome pathway (Table 7, FIG. 14I)” value (5xFAD mice, Visudyne with photo ablation, brain myeloid cells) was “relatively downregulated”. For the same substance, the “expression of 24 genes (Table 6) in cluster 1 brain myeloid cells, 5xFAD Vis.+photo. vs WT Vis.” value (Visudyne + photoconversion twice within 3 weeks) was “significantly different”, the “expression of 24 genes (Table 6) in cluster 1 brain myeloid cells, 5xFAD Vis. vs WT Vis.” value (Visudyne alone, no photoconversion) was “not significantly different” and the “Rel. Expr. WT Vis.: Hexb” value [3] was “+”. For the same substance, the “Rel. Expr. WT Vis.: Lgmn” value [3] was “+”.
